Experimental data: patent US11266643B2, “Triaryl compounds for treatment of PD-L1 diseases” (CHEMOCENTRYX, INC., priority 2019, dated 2022)

These molecules were tested against human PD-L1 (Homo sapiens (Human), UniProt Q9NZQ7) (assay: Enzyme-Linked Immunosorbent Assay (ELISA), PD-1/PD-L1 binding). Conditions: PD-1/PD-L1 ELISA, human PD-L1 coated plates, Table 1.
Method in brief: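 Plates coated with […] human PD-L1 overnight at 4° C, blocked, then 1:5 serial compound dilutions added with human PD-1 […] 0.31 μg/mL for 1 h at 37° C. Bound PD-1 detected with streptavidin-HRP and TMB (20 min, 37° C); absorbance read at 450 nm after H2SO4 stop.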

Sequence of human PD-L1 (Q9NZQ7 19-239): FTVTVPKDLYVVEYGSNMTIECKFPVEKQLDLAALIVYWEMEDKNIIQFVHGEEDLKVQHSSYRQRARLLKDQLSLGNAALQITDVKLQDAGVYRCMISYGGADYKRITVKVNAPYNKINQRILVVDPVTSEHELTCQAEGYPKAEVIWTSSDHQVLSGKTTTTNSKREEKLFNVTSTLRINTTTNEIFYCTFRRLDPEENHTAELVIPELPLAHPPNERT

SMILES | IC50
COc1cc(-c2cccc(-c3cccc(NC(=O)c4c[nH]c(=O)n(C)c4=O)c3C)c2C)cc(F)c1CN1CCOCC1 [Example 1.235] | 10 to 1000 nM
COc1cc(-c2cccc(-c3cccc(NC(=O)c4cccn(C)c4=O)c3C)c2C)cc(F)c1CNCC(=O)O [Example 1.290] | < 10 nM
COc1cc(-c2cccc(-c3cccc(NC(=O)c4cccn(CC(=O)O)c4=O)c3C)c2C)cc(F)c1CN [Example 1.291] | 1000 to 10000 nM
COc1cc(-c2cccc(-c3cccc(NC(=O)c4ccccn4)c3C)c2C)cc(F)c1CN1CC(C(=O)O)C1 [Example 1.381] | < 10 nM
COc1cc(-c2cccc(-c3cccc(NC(=O)c4c[nH]c(=O)n(C)c4=O)c3C)c2C)cc(F)c1CNC[C@@H](C)O [Example 1.222] | < 10 nM

Same assay, conditions: human PD-1/PD-L1 ELISA, plates coated with human PD-L1

SMILES | IC50
COc1cc(-c2cccc(-c3cccc(Nc4nccc5c4C(=O)N(C)CC5)c3C)c2C)cc(F)c1CNC[C@@H]1CCC(=O)N1 [Example 1.193] | < 10 nM
COc1cc(-c2cccc(-c3cccc(Nc4nccc5c4C(=O)N(C)CC5)c3C)c2C)cc(F)c1CN[C@@H]1CNC(=O)C1 [Example 1.196] | 10 to 1000 nM
COc1cc(-c2cccc(-c3cccc(NC(=O)c4cn(C)c(=O)n(C)c4=O)c3C)c2C)cc(F)c1CN[C@@H]1CCC(=O)NC1 [Example 1.107] | < 10 nM
COc1cc(-c2cccc(-c3cccc(NC(=O)c4cn(C)c(=O)n(C)c4=O)c3C)c2F)cc(F)c1CN[C@@H]1CCC(=O)NC1 [Example 1.004] | < 10 nM
COc1cc(-c2cccc(-c3cccc(NC(=O)c4nn(C)c(=O)n(C)c4=O)c3C)c2C)cc(F)c1CNCC[C@@H]1CCC(=O)N1 [Example 1.088] | < 10 nM
COc1cc(-c2cccc(-c3cccc(NC(=O)c4cncn(C)c4=O)c3C)c2C)cc(F)c1CNCC1CCNC(=O)C1 (stereo not shown) [Example 1.051] | < 10 nM
COc1cc(-c2cccc(-c3cccc(NC(=O)c4cn(C)c(=O)n(C)c4=O)c3Cl)c2C)cc(F)c1CN[C@@H]1CCOC[C@@H]1O [Example 1.010] | < 10 nM
COc1cc(-c2cccc(-c3cccc(NC(=O)c4cn(C)c(=O)n(C)c4=O)c3C)c2Cl)cc(F)c1CN[C@H]1CCOC[C@@H]1O (racemic) [Example 1.011] | < 10 nM
COc1cc(-c2cccc(-c3cccc(NC(=O)c4cn(C)c(=O)n(C)c4=O)c3Cl)c2C)cc(F)c1CNCC(C)(C)C(N)=O [Example 1.032] | < 10 nM

Same assay, conditions: plate-coated human PD-L1, biotinylated Human PD-1, absorbance at 450 nm

SMILES | IC50
COc1cc(-c2cccc(-c3cccc(NC(=O)c4cn(C)c(=O)n(C)c4=O)c3Cl)c2F)cc(F)c1CN[C@@H]1CCOC[C@@H]1O [Example 2.091] | < 10 nM
COc1cc(-c2cccc(-c3cccc(NC(=O)c4cn(C)c(=O)n(C)c4=O)c3C)c2Cl)cc(F)c1CN1CCC2(CCNC2=O)C1 (stereo not shown) [Example 2.007] | < 10 nM
